Assay results from US8628961B2, “Small molecule antagonists of phosphatidylinositol-3,4,5-triphosphate (PIP3) and uses thereof” (Tufts University, priority 2010, dated 2014).

Tests used:
[1] = Cell death in combination with inhibitors of mitochondrial respiration and ATP synthase; type: cell-based
Description: Elstrom R L et al. (2004) Cancer Res 64:3892-9.

[2] = test system: SV40-transformed mouse adult lung fibroblasts; test: Viability of Akt1-expressing versus Akt1-3 triple knockout fibroblasts; type: cell-based
Description: Shaughnessy J D (2008) Nature 454:172-3; Weinstein I G (2002) Science 297:63-4. Therefore, the possibility that PIT-1 may cause preferential cell death in the cells containing elevated PIP3 levels was examined. […] Li D M et al. (1998) Proc Natl Acad Sci USA 95:15406-11. […] Neshat M S et al. (2001) Proc Natl Acad Sci USA 98:10314-9.

human cancer cells = test: Cancer cell migration, transwell migration and wound closure models; type: cell-based; conditions: model not specified
Method: Two models of cell migration were used, a transwell migration model and a wound closure model. Migration of cancer and endothelial cells was evaluated using 24-transwell Boyden chamber (Costar, Bedford, Mass.) with a polystyrene membrane (6.5 mm diameter, 10 μm thickness, and 8 μm pore size). Cells were suspended in serum-free media and seeded in the upper compartment of each well (2×10^4 cells/well) in the presence or absence of different compounds at the indicated concentrations. The lower compartment contained 600 μl of serum-free culture media supplemented with growth factors. After an 8-hr incubation at 37° C., cells were fixed and stained with 0.1% crystal violet. Non-migrating cells on the upper surface of the filter were removed, and the stained cells that migrated to the lower side were photographed using a phase-contrast microscope (Nikon, Japan) in five random fields. The cells were lysed with 10% acetic acid, and colorimetric determination was made at 595 nm using Wallac Victor 3 plate reader.
Cancer or endothelial cells were seeded into fibronectin-coated 96-well plates (2×10^4 cells/well). After reaching confluence, cell monolayers were scratched with a pipette tip to obtain a “wound”. The media and dislodged cells were aspirated and replaced by fresh serum-free media in the presence of growth factors, with or without compounds at different concentrations. After an 8-hr incubation at 37° C., cells were photographed using a phase-contrast microscope in five random fields. The width of wounded cell monolayers in images was measured and the inhibition rates of migration were calculated as inhibition rate=[1−(compound-treated group/control group)]×100%, and IC50 value was determined using Origin6 software (MicroCal, LLC, Northampton, Mass.).

U87MG cells [3] = test: Combination with Akt kinase inhibitors in U87MG cells (western blot, ATP assay); type: cell-based, human
Method: U87MG cells were treated with 100 μM PIT-1, or 10 μM Akt inhibitor VIII (Calbiochem) or Akt inhibitor (Calbiochem), or 100 μM PIT-1 together with 10 μM Akt inhibitor VIII or Akt inhibitor, for 12 hr and then phosphorylation events were evaluated by western blot.

Akt PH domain [4] = target: T1, Akt PH domain (Homo sapiens (Human), UniProt P31749); test: PH domain translocation assay (GFP fusion, plasma membrane); type: cell-based; conditions: PDGF stimulation
Method: Cells were transfected with the corresponding GFP-fusion vectors, serum starved overnight, and incubated with 100 μM PITs or PIT-1 is for 2 hr, followed by stimulation with 100 ng/ml PDGF or 250 ng/ml PMA for 5 min. The translocation was analyzed using fluorescent microscope and was quantitated by counting the number of cells with translocated PH domains in five random fields.
To begin characterizing cellular activity of PITs, a PH domain translocation assay was performed, measuring PIP3-induced association of GFP-fused PH domains with the plasma membrane. […] Varnai P et al. (1999) J Biol Chem 274:10983-9. Several PH-domain-containing proteins, which are known to bind PIP3 specifically and efficiently, were examined. […] Oikawa T et al. (2004) Nat Cell Biol 6:420-6.
Target sequence in this assay (P31749 5-108): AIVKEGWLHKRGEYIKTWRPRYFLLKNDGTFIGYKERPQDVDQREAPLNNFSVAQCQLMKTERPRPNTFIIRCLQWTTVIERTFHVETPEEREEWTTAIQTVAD

Akt PH domain [5] = target: T1, Akt PH domain; test: Fluorescence polarization (FP) PIP3/Akt PH domain binding assay; conditions: 15 nM TMR-conjugated PIP3, PITs 6.25-200 μM, 30 min
Description: (§1) In order to identify compounds that disrupt the interaction between PIP3 and PH domains, a high-throughput fluorescence polarization (FP)-binding assay was developed using recombinant 1-123 amino acid N-terminal fragment of human Akt1 (also referred to herein simply as Akt), encompassing the PH domain (PH123 protein), and fluorescent […] PIP3 molecule. The amino acid sequence of human Akt1 is publicly available as, for example, GenBank Accession No. NP_001014432.1 (SEQ ID NO:1), and the corresponding DNA sequence is publicly available as, for example, GenBank Accession No. NM_001014432. Briefly, 5 μM recombinant GST fusion proteins containing 1-123 a.a. N-terminal fragment of human Akt1 (PH 123) or 100 nM 441-551 a.a. region of human PDK1 were incubated with 15 nM TMR-labeled PIP3, PIP2, or PIP5 in buffer containing 50 mM Tris-HCl (pH 7.5), 150 mM NaCl, and 5 mM b-ME for 15 min at room temperature in the dark. FP values were determined using Wallac Victor 3 plate reader. For the primary screen, 50,000 diverse small molecules from Harvard Institute of Chemistry and Cell Biology were screened (iccb.med.harvard.edu). Incubations were carried out for 1 hr. For secondary assays, PIT compounds were added at various concentrations (6.25, 12.5, 25, 50, 100, 150 and 200 μM), followed by a 30 min incubation. The inhibition rates were calculated as inhibition rate=[1−(compound-treated group/control group)]×100%, and IC50 value was determined using Origin6 software (MicroCal, LLC, Northampton, Mass.).
Target sequence in this assay (P31749 1-123): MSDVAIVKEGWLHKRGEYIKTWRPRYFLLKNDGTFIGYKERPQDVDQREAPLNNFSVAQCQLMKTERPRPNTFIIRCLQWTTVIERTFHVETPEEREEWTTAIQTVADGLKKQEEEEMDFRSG

[6] = Solubility (aqueous, cell media); type: physicochemical; conditions: 300 μM unencapsulated
Description: The size of the DM-PIT-1-loaded micelles was about 15 nm with a narrow size distribution.

GRP1 PH domain = GRP1 PH domain (Homo sapiens, UniProt O43739); test: FP PIP3/GRP1 PH domain binding assay; conditions: 15 nM TMR-conjugated PIP3, 100 nM GRP1 PH domain, 30 min
4T1 breast tumor = test: Syngeneic 4T1 breast cancer growth in BALB/c mice; type: in vivo
Method: The effect of intravenous (i.v.) administration of both unencapsulated DM-PIT-1 in PBS and DM-PIT-1-M on the syngeneic 4T1 breast cancer growth in BALB/c mice was examined. 4T1 metastatic breast cancer cells were first cultured in vitro in DMEM medium containing 10% FBS and antibiotics. After re-suspension in PBS, the 4T1 cancer cells (8×10^4) were injected s.c. into axillary regions of BALB/c mice. The treatment with PIT-1 began on day 11 after inoculation of tumor cells, i.e., when tumors were palpable, but before tumors are precisely measurable (˜50 mm^3). Working solutions of all PIT-1-formulations were made in sterile 0.9% NaCl before injection into mice. […] If the tumor size reached approx. 1000 mm^3, the mice were euthanized using carbon dioxide (CO2) prior to cervical dislocation. Seven mice per group were used. The tumor volume (V) was measured every two days by microcaliper for 8 days. Tumor volume was calculated according to the formula (α×b^2)/2, where α is the longest and b is the shortest diameter of tumor, respectively. Tumor tissues were fixed in phosphate-buffered formalin, embedded in paraffin, cut in 4 μm thickness, and applied to slides. The slides were deparaffinized in xylenes using three changes for 5 min each, and hydrated gradually through graded alcohols: 100% ethanol twice for 10 min each, 95% ethanol twice for 10 min each, and then deionized water for 1 min with stirring. For antigen unmasking, slides were placed in a container, covered with 10 mM sodium citrate buffer, pH 6.0, and heated in a convection steamer for 1 hr. The slides were washed in deionized water three times for 2 min each, blocked with 5% normal goat blocking serum for 30 min, incubated with goat anti-CD31 primary antibody for 1 hr, and incubated with an Alexa Fluor 488-conjugated secondary antibody for 30 min. The slides were analyzed and photographed using a fluorescent microscope. TUNEL staining was performed using FragEL kit according to manufacturer's instructions (Calbiochem).

PDK1 PH domain = PDK1 PH domain (Homo sapiens (Human), UniProt O15530); test: FP PIP3/PDK1 PH domain binding assay; conditions: 15 nM TMR-conjugated PIP3, 100 nM PDK1 PH domain, 30 min
Chain of PDK1 PH domain (O15530 441-551): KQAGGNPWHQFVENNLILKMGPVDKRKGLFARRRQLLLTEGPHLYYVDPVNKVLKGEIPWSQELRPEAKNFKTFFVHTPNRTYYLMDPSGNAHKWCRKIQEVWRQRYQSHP
Description: as §1

U87MG cells [7] = test: cells; type: cell-based
Method: Based on the critical role of PIP3-dependent […] signaling in the regulation of cell survival, the effect of PIT-1 on the cancer cell viability was tested. Cancer cells were seeded into 96-well plates (white plates for ATP assay; black plates for fluorescent assay; clear plates for MTS assay) at the density of 5-10×10^3 cells per well in 100 μl of the appropriate media. Compounds were added at a series of concentrations and incubated for different times. For the ATP assay, a luminescence-based commercial kit (CellTiter-Glo, Promega, Madison, Wis.) was used. Thirty microliters of cell lysis/ATP detection reagent was added to each well, mixed for 10 min at room temperature, and the luminescence was measured using a Wallac Victor 3 plate reader (Perkin-Elmer, Wellesley, Mass.). For the MTS assay, a CellTiter 96 AQueous Non-Radioactive Cell Proliferation Assay Kit (Promega, Madison, Wis., USA) was used. Twenty microliters of the combined MTS/PMS solution was added into each well, incubated for 4 hr at 37° C., and the absorbance at 490 nm was measured using a Wallac Victor 3 plate reader. For the Sytox cell death assay, measuring loss of plasma membrane integrity, cells were incubated with 1 μM Sytox Green reagent (Molecular Probes, Eugene, Oreg.) for 30 min at 37° C. and the fluorescence intensity was measured using Wallac Victor 3 plate reader with excitation at 485 nm and emission at 545 nm. Next, 5 μl of 20% (v/v) Triton X-100 solution was added to each well and incubated for 1 hr at 37° C., and the signal was measured again. The ratio of values (percentage of dead cells in each well) before and after Triton X-100 treatment was calculated and normalized to the relevant controls not subjected to the cytotoxic stimuli. IC50 values were determined using Origin6 software (MicroCal, LLC, Northampton, Mass.).
To measure induction of cell death by PIT-1 derivatives, U87MG cells were incubated with PITs (1.56-300 μM) for 48 hr. Cell viability was determined using ATP assay.

Row | IC50 (Akt PH domain [5]) [µM] | precipitation in cell media [6] | IC50 (GRP1 PH domain) [µM] | IC50 (PDK1 PH domain) [µM] | IC50 (U87MG cells [7]; Homo sapiens, U-87 MG, U87MG cells, 48 hr, ATP assay, read-out: Cell Viability IC50) [µM] | Compound | cell death with oligomycin, antimycin A, rotenone [1] | loss of viability in Akt1-expressing versus Akt1-3 triple knockout fibroblasts [2] | cancer cell migration (human cancer cells) | combination of Akt inhibitors VIII and X (U87MG cells [3]) | plasma membrane translocation of Akt PH domain (Akt PH domain [4]) | reduction of tumor volume compared to control (4T1 breast tumor; day 8, 0.4 mg/kg/day i.v.) [%] | tumor volume (4T1 breast tumor; day 8, 0.4 mg/kg/day i.v.) [mm^3] | tumor growth compared to control (4T1 breast tumor; i.v. daily 8 days, DM-PIT-1 0.4 mg/kg, DM-PIT-1-M 1 mg/kg, P<0.01) | tumor angiogenesis, CD31 loci (4T1 breast tumor; mouse, in vivo) | activity compared to PIT-1 (U87MG cells [7]; cell death in U87MG cells, cell migration, PI3K-PDK1-Akt signaling)
1 | – | – | – | – | – | O=c1[nH]c2ccccc2n1C1CCN(Cc2ccc(-c3nc4cc5[nH]cnc5cc4nc3-c3ccccc3)cc2)CC1 [Akt inhibitor VIII] | synergized | comparable | lack thereof | no additive effect | Neither Akt inhibitor X nor allosteric inhibitor VIII blocked membrane translocation | – | – | – | – | –
2 | 27.1 ± 3.2 | significant precipitation | 35.5 ± 3.8 | 80.5 ± 3.1 | 33.9 ± 2.2 | Cc1cc(C)cc(C(=O)NC(=S)Nc2cc([N+](=O)[O-])ccc2O)c1 [DM-PIT-1] | – | – | – | – | – | 58.1 | 380±52.3 | significantly attenuated tumor growth | marked decrease in cancer angiogenesis | increased activity in these assays compared to PIT-1
